Test systems include KM12 colon; IGROV1 ovarian; UO-31 renal; HCT-116 colon; OVCAR-4 ovarian; M14 melanoma; EKVX NSCLC; MALME-3M melanoma; SN12C renal; SK-MEL-5 melanoma; COLO 205 colon; LOX IMVI melanoma; ACHN renal; NCI-H522 lung; SR leukemia; NCI-H23 lung; NCI-H460 lung; MCF7 breast.
Common to all, as to experiment: NCI tumour cell line growth inhibition, 48 h

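These data come from cells grown in 96-well plates and exposed to compound for 48 hours at five concentrations. TGI denotes the concentration required for complete inhibition of growth.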

As for `CC(C)C1COC(C(C)(C)C2=N[C@@H](C(C)C)CO2)=N1` (some centres undefined), the TGI with KM12 colon, in the assay with IGROV1 ovarian, in the assay on UO-31 renal, with HCT-116 colon, with OVCAR-4 ovarian and in the assay with M14 melanoma was more than 100 µM in each case. In addition, the TGI in the assay with EKVX NSCLC, with MALME-3M melanoma, in the assay on SN12C renal, in the assay on SK-MEL-5 melanoma, in the assay on COLO 205 colon and with LOX IMVI melanoma was more than 100 µM each time. The TGI in the assay with ACHN renal, in the assay on NCI-H522 lung, in the assay with SR leukemia, in the assay on NCI-H23 lung and in the assay on NCI-H460 lung was more than 100 µM throughout.
In the case of `O=C1CCCc2cc3c(cc21)CC1(C3)Cc2cc3c(cc2C1)C(=O)CCC3`, the TGI amounted to 7.85 µM with KM12 colon; 84.6 µM with IGROV1 ovarian; 81.4 µM in the assay on UO-31 renal; 37.9 µM with HCT-116 colon; 82.7 µM with OVCAR-4 ovarian; 15.3 µM in the assay on MCF7 breast. The TGI with M14 melanoma was 11.8 µM; with EKVX NSCLC, more than 100 µM; in the assay on MALME-3M melanoma, more than 62.6 µM; with SN12C renal, more than 85.3 µM; in the assay on SK-MEL-5 melanoma, 7.09 µM; in the assay on COLO 205 colon, 5.06 µM. Moreover, the TGI in the assay on LOX IMVI melanoma is more than 65.3 µM; with ACHN renal, 35.8 µM; with NCI-H522 lung, 6.15 µM; in the assay on NCI-H23 lung, 31.7 µM; in the assay with NCI-H460 lung it was more than 44.2 µM.
For the compound `CCC1=NC(N/N=C/c2ccco2)=N/C1=C\c1ccco1`, the TGI in the assay on KM12 colon, in the assay on IGROV1 ovarian, with UO-31 renal, with HCT-116 colon, with OVCAR-4 ovarian and in the assay with M14 melanoma was more than 100 µM in each case. The TGI in the assay with EKVX NSCLC, with MALME-3M melanoma, in the assay with SN12C renal, with SK-MEL-5 melanoma, with COLO 205 colon and in the assay on LOX IMVI melanoma was more than 100 µM in each case. Further, the TGI with ACHN renal, with NCI-H522 lung, with SR leukemia, in the assay on NCI-H23 lung and in the assay with NCI-H460 lung was more than 100 µM in each case.
In the case of `O=c1[nH]nc(Cc2ccc(Cl)cc2)n1CCO`, the TGI with KM12 colon, in the assay with IGROV1 ovarian, with UO-31 renal, in the assay on HCT-116 colon, in the assay with OVCAR-4 ovarian and in the assay with MCF7 breast was more than 100 µM throughout. The TGI in the assay with M14 melanoma, with EKVX NSCLC, in the assay with MALME-3M melanoma, in the assay with SN12C renal, in the assay with SK-MEL-5 melanoma and in the assay with COLO 205 colon was more than 100 µM throughout. Moreover, the TGI with LOX IMVI melanoma, in the assay on ACHN renal, in the assay on NCI-H522 lung, with NCI-H23 lung and with NCI-H460 lung was more than 100 µM each time.
For `CCOC(=O)/C(=C/c1ccccc1)N(CC)CC`, the TGI in the assay with KM12 colon, in the assay with IGROV1 ovarian, in the assay on UO-31 renal, in the assay on HCT-116 colon, in the assay with OVCAR-4 ovarian and in the assay with M14 melanoma was more than 100 µM each time. For the same compound, the TGI in the assay with EKVX NSCLC, with MALME-3M melanoma, in the assay on SN12C renal, in the assay on SK-MEL-5 melanoma, in the assay on COLO 205 colon and in the assay with LOX IMVI melanoma was more than 100 µM in each case. Also, the TGI with ACHN renal, in the assay with NCI-H522 lung, with SR leukemia, in the assay on NCI-H23 lung and with NCI-H460 lung was more than 100 µM throughout.
Take `CCOc1cc2cnc3c4cc(OC)c(OC)cc4ccc3c2cc1OC`: the TGI in the assay with KM12 colon, with IGROV1 ovarian, in the assay with UO-31 renal, in the assay on HCT-116 colon, in the assay with OVCAR-4 ovarian and in the assay on M14 melanoma was more than 100 µM in each case. Also, the TGI with EKVX NSCLC, with MALME-3M melanoma, with SN12C renal, in the assay on SK-MEL-5 melanoma, in the assay on COLO 205 colon and with LOX IMVI melanoma was more than 100 µM throughout. Further, the TGI in the assay with ACHN renal, in the assay with NCI-H522 lung, in the assay with SR leukemia, in the assay with NCI-H23 lung and in the assay with NCI-H460 lung was more than 100 µM in each case.
As for `Cc1[nH]c2[nH]c(=S)nc(NC(N)=S)c2c1Cc1ccccc1`, the TGI in the assay with KM12 colon is 40.7 µM; in the assay with IGROV1 ovarian, more than 100 µM; in the assay on UO-31 renal, more than 100 µM; with HCT-116 colon, more than 100 µM; in the assay on MCF7 breast, more than 100 µM; with M14 melanoma, more than 100 µM. The TGI with EKVX NSCLC is more than 100 µM; in the assay on SN12C renal, more than 100 µM; in the assay with SK-MEL-5 melanoma, 26.1 µM; in the assay with COLO 205 colon, 34 µM; with LOX IMVI melanoma it was 55.4 µM; in the assay with ACHN renal it was more than 100 µM. In addition, the TGI with SR leukemia is 36.2 µM; in the assay with NCI-H23 lung it was more than 100 µM; in the assay on NCI-H460 lung it was more than 100 µM.
Turning to `O=c1oc2ccccc2c(O)c1Cc1ccccc1Cc1c(O)c2ccccc2oc1=O`, the TGI with KM12 colon, with IGROV1 ovarian, in the assay on UO-31 renal, with HCT-116 colon, in the assay with OVCAR-4 ovarian and with MCF7 breast was more than 100 µM each time. Also, the TGI with M14 melanoma, in the assay on EKVX NSCLC, with MALME-3M melanoma, with SN12C renal, in the assay with SK-MEL-5 melanoma and with COLO 205 colon was more than 100 µM in each case. Also, the TGI with LOX IMVI melanoma, in the assay on ACHN renal, in the assay on NCI-H522 lung, in the assay with NCI-H23 lung and with NCI-H460 lung was more than 100 µM throughout.

Values taken from PubChem BioAssay (NCI).
